Measured values from patent publication US20110151025A1, “Compositions Comprising N-Halogenated or N,N-Dihalogenated Amine for Treatment and Prophylaxis of Bronchopulmonary Infections” (NOVABAY PHARMACEUTICALS, INC., priority 2008, published 2011).
Entries after “also recorded” stand apart in the source; their conditions may differ. Where two headings read alike, the source gives them in different places.

What was measured:
[1] = system: proinflammatory cytokines; settings: cited from earlier work
viral bronchitis = test: Inhalation of 1% NCT by human volunteers suffering from viral bronchitis; assay type: in vivo
Staphylococcus aureus = settings: local administration, mouse model; cited from earlier work
[2] = Tolerability of inhaled haloamines in anesthetized pig model; settings: for Arterial partial pressure of oxygen (PaO2) compared to controls: 4 inhalations of 5 mL, hourly over 4 hours; for Heart rate compared to controls: 4 hours measurement
Protocol: A study was designed to evaluate the tolerability of inhalative haloamines in a pig model. NCT was used as a representative haloamine. Anesthetized pigs inhaled test solutions of 1% NCT (n=7), 5% NCT (n=6), or 1% NCT plus 1% ammonium chloride (n=6), and 0.9% saline solution as a control (n=7), respectively. Applications were performed every hour over a four-hour time period, i.e., four inhalations in total, with 5 mL each.
Anesthetized pigs inhaled test solutions of 1% NCT (n=7), 5% NCT (n=6), or 1% NCT plus 1% ammonium chloride (n=6), and 0.9% saline solution as a control (n=7), respectively. Applications were performed every hour over a four-hour period, i.e., 4 inhalations in total, with 5 mL each.
Anesthetized pigs inhaled test solutions of 1% NCT (n=7), 5% NCT (n=6), or 1% NCT plus 1% ammonium chloride (n=6), and 0.9% saline solution as a control (n=7), respectively. Applications were performed every hour within four hours, i.e., 4 inhalations in total, with 5 mL each.
Anesthetized pigs inhaled test solutions of 1% NCT (n=7), 5% NCT (n=6), or 1% NCT plus 1% ammonium chloride (n=6), and 0.9% saline solution as a control (n=7), respectively. Applications were performed every hour over a four-hour period of time, i.e., 4 inhalations in total, with 5 mL each.

[3] = chronic rhinosinusitis, pilot study; cited from earlier work
[4] = purulent coated crural ulcers; cited from earlier work
all classes of pathogens = settings: cited from earlier work
[5] = transtympanal injection of 0.1%, 1%, and 10% NCT, mice; cited from earlier work
[6] = 1% aqueous NCT solution, rabbit eyes; cited from earlier work
[7] = 1% aqueous NCT solution, human eyes; cited from earlier work
[8] = Intraperitoneal injection in Swiss mice; assay type: in vivo; settings: 1% NCT
Excerpt: NCT is relatively safe and well-tolerated by mammals. For example, as a mild oxidant, tolerability of 1% aqueous NCT solution by human and animal tissue is good.

[9] = system: infectious conjunctivitis; settings: in vivo; cited from earlier work
external otitis = settings: human external otitis; cited from earlier work
[10] = system: omniresistant Pseudomonas aeruginosa; settings: NCT irrigations, three patients; cited from earlier work

O=S(=O)(O)CCNCl [NCT, N-chlorotaurine]
Effect on proinflammatory cytokines [1]: down-regulate proinflammatory cytokines | Symptoms experienced by patients (viral bronchitis; 5 mL of 1% NCT inhaled for 10 minutes 3 times daily for three days): easier breathing, less coughing and less expectoration | Side effects (symptoms for bronchoconstriction, cough, dyspnea) (viral bronchitis; 5 mL of 1% NCT inhaled for 10 minutes 3 times daily for three days, three volunteers): no side effects detectable | Development of bronchitis after pharyngitis (viral bronchitis; one patient, NCT used as a treatment for pharyngitis): did not develop bronchitis | Inhibition of septic arthritis (Staphylococcus aureus): inhibited septic arthritis | Pulmonary artery pressure compared to saline group ([2]; 1% NCT): tended to result in even better values | Alveolo-arterial difference of oxygen partial pressure (AaDO2) ([2]; 1% NCT, 4-hour measurement, controls 33.7±9.03, p=0.016): 21.0±13.09 | Arterial partial pressure of oxygen (PaO2) compared to controls ([2]; 1% NCT): No difference in PaO2 to controls | Heart rate compared to controls ([2]; 1% NCT): not significantly different from controls | Tolerability in the bronchopulmonary system upon inhalation ([2]; 1% NCT, conclusion from pig and volunteer results): very well tolerated | Pulmonary artery pressure compared to controls ([2]; 5% NCT): became higher than in the control group; also recorded: significantly higher values | Tolerability upon inhalation ([2]; 5% NCT): very well tolerated | Alveolo-arterial difference of oxygen partial pressure (AaDO2) compared to the controls ([2]; 5% NCT (p=0.99)): not different | Arterial partial pressure of oxygen (PaO2) compared to controls ([2]; 5% NCT): No difference in PaO2 to controls | Heart rate compared to controls ([2]; 5% NCT): not significantly different from controls | Tolerability [3]: good tolerability | Pain versus chloramine T [4]: significantly less pain | Toxicity versus chloramine T [4]: less toxic than chloramine T | Antimicrobial spectrum (all classes of pathogens): broad-spectrum antimicrobial activity | Induction of resistance of pathogens (all classes of pathogens): resistance of pathogens is not induced | Damage of the inner ear [5]: did not cause damage of the inner ear | Tolerability [6]: good | Tolerability [7]: good | Tolerated intraperitoneal dose [8]: tolerated up to one mL 1% NCT | Efficacy in infectious conjunctivitis [9]: data indicating efficacy | Efficacy versus standard medication (external otitis): more effective than a standard medication | Eradication of bacteria from the urinary bladder [10]: possible to eradicate bacteria
